Ends that are not written are not given here.
Legend:
[1] = PBS buffer
Description: After storing at -20 °C, the peptides were dissolved in phosphate-buffered saline (PBS). […] The pH of all the buffers was adjusted to physiological value 7.4.

Calcein leakage assay = format: biochemical; conditions: calcein leakage, POPC:POPG (1:1 mol/mol) LUVs
Description: Chemicals. […] (Prague, Czech Republic), and Caslo ApS (Kongens Lyngby, Denmark). […] The bacterial stock was stored at -80°C.
Calcein leakage assay. Pore-forming activity of the peptides was tested by their ability to leak the self-quenching fluorescent dye calcein entrapped within POPC:POPG (1:1 mol/mol) large unilamellar vesicles (LUVs). After mixing DiD to the lipid mixture (in the ratio 1:500 mol/mol), a thin lipid film was created by evaporating of the chloroform, traces of which were removed by desiccating overnight. The lipid film was then dissolved in calcein buffer, followed by vigorous vortexing. The lipid suspension was subsequently subjected to 10 freeze-thaw cycles. To obtain uniform LUVs, the sample was passed 50 times back and forth through an extruder stacked with 100 nm pore size polycarbonate membrane filter. Afterwards, the untrapped calcein was removed on a HiTrap Desalting Column (with Sephadex G-25 Superfine resin) by washing with PBS buffer. The concentration of the lipid suspension was then adjusted to 0.02 mM. The concentration of the peptide solution was 0.1 mM. The inventors monitored the peptide-induced release of calcein from LUVs by the increase in fluorescence intensity after adding increasing amounts of peptides to the LUVs under constant stirring at 25 °C. The investigated range of peptide/lipid molecular ratio was from 1:100 to 1:10. The excitation and emission wavelengths were set to 495 nm and 520 nm, respectively. Maximum fluorescence intensity was obtained by disrupting all the vesicles in the end by adding 10% Triton X-100. Experiments were performed in triplicates with independently prepared lipid vesicles.

KKKKLKKILKKLFQFINQLDNQLQDIAQNA-NH2 [KDFA2i+7-npNH2]
aggregation / solubilization problem (in words) [1]: peptide aggregation | Extent of leakage (in percentage) at increasing peptide-to-lipid ratio (mol/mol) 1:10 (Calcein leakage assay; peptide-to-lipid ratio 1:10 (mol/mol)): Aggregated peptides and no leakage | Extent of leakage (in percentage) at increasing peptide-to-lipid ratio (mol/mol) 1:20 (Calcein leakage assay; peptide-to-lipid ratio 1:20 (mol/mol)): Aggregated peptides and no leakage | Extent of leakage (in percentage) at increasing peptide-to-lipid ratio (mol/mol) 1:50 (Calcein leakage assay; peptide-to-lipid ratio 1:50 (mol/mol)): Aggregated peptides and no leakage | Extent of leakage (in percentage) at increasing peptide-to-lipid ratio (mol/mol) 1:100 (Calcein leakage assay; peptide-to-lipid ratio 1:100 (mol/mol)): Aggregated peptides and no leakage

Reference: patent EP4129319A1, “PORE-FORMING ANTIMICROBIAL PEPTIDES” (priority 2021, dated 2023)
